Patent US11691960B2, “2-[thiophen-2-yl)formamido]-N-(phenyl)-2-methylpropanamide derivatives and the use thereof as medicament” (Boehringer Ingelheim International GmbH, priority 2020, dated 2023)
Where two headings read alike, the source gives them in different places.

Experiments:
human Factor Xa = human Factor Xa (Homo sapiens (Human), UniProt P00742); experiment: Assay C: human Factor Xa chromogenic substrate assay; type: biochemical; details: for IC50: human Factor Xa 0.86 nM, chromogenic substrate S2765; for Selectivity Assay C/Assay A: ratio IC50 Factor Xa / IC50 IDO1
Protocol: Assay C. In Vitro Testing of Human Factor Xa Potency:
Measurement of active human Factor Xa using a specific chromogenic substrate which is labeled with a p-nitro-anilino group (pNA). The cleavage in between the binding of the peptide substrate and the pNA-group is followed by a color change, which can be detected at 405 nm. The amount of cleaved substrate is directly proportional to the amount of active Xa.
[…] (100 U) human Factor Xa (Enzyme Research Laboratories; HFXa1011) were solved in 0.444 ml H2O (Millipore), which accords to a stock solution of 19.28 μM or 225 U/ml. Further dilutions were made in the assay buffer (Tris 100 mM, NaCL 150 mM, adjusted to a pH of 7.8 with HCL, containing 0.1% BSA and 0.05% Tween20). 25 mg (1 vial) of the chromogenic substrate S2765 (Chromogenix; S2765) was solved in 3.5 ml H2O (Millipore) to achieve a stock solution of 10 mM.
Compounds were solved and diluted in DMSO where the final dilution in the assay is 1:10 resulting in a final concentration of 1% DMSO.
• the prefinal dilution step was 1:10 in the assay buffer containing 11% DMSO resulting in 10% DMSO • final dilution in the assay is 1:10 resulting in a final concentration of 1% DMSO
Compounds were tested at final concentrations of 10 μM to 0.003 nM or lower. 5 μl human factor Xa (final concentration 0.86 nM), 2 μl compound dilution or assay buffer (containing 10% DMSO) and 8 μl assay buffer were pipetted in triplicates into a 384-well plate and incubated in the Thermomix at 24° C. for 10 minutes.
After addition of 5 μl chromogenic substrate (final concentration 0.5 mM) the enzyme-substrate reaction started and the kinetic measurement with the SpectraMax Monochromator was started within 1-2 minutes. • Parameter of measurement: (Spectra ax, Monochromator) • Absorbance; 1.LM 405 nM • Kinetic: 16 min each 2nd minute (9 times) • Negative Control (NC) 5 μl human factor Xa+10 μl assay buffer+5 μl Substrate • Positive Control (PC): 5 μl human factor Xa+2 μl Nafamostat (commercially available, final concentration: 1 μM)+8 μl assay buffer+5 μl Substrate • Blank (optional): 15 μl assay buffer+5 μl Substrate
Calculation of IC50, KI and the % effect at the highest concentration (Ratio)
For the calculation the average of the Vmax-values in between 120 sec to 720 sec were taken.
A x/y-Plot was created: x=log (M, Compound); y=vmax (drfu/min)
The data were analyzed with the curve fitting model: log (inhibitor) vs. response—Variable slope (four parameters)
The results of this fit were Top, Bottom, Log (IC50, M), Hillslope and IC50 (M)

MDR1 (P-gp) = MDR1 (P-gp) (Homo sapiens (Human), UniProt P08183); experiment: Assay E: MDCK assay MDR-1 (P-gp); type: in vitro ADME; details: for efflux ratio at 2 h, 10 μM: human, final test concentration 10 μM
Protocol: The MDCK assays provide information on the potential of a compound to pass the blood brain barrier. Permeability measurements across polarized, confluent MDCK-MDR1 cell monolayers grown on permeable filter supports are used as an in vitro absorption model: apparent permeability coefficients (PE) of the compounds across the MDCK-MDR1 cell monolayers are measured (pH 7.4, 37° C.) in apical-to-basal (AB) and basal-to-apical (BA) transport direction. The AB permeability (PEAB) represents drug absorption from the blood into the brain and the BA permeability (PEBA) drug efflux from the brain back into the blood via both, passive permeability as well as active transport mechanisms mediated by efflux and uptake transporters that are expressed on the MDCK-MDR1 cells, predominantly by the overexpressed human MDR1. Identical or similar permeabilities in both transport directions indicate passive permeation, vectorial permeability points to additional active transport mechanisms. Higher PEBA than PEAB (PEBA/PEAB >3) indicates the involvement of active efflux mediated by MDR1, which might compromise the goal to achieve sufficient brain exposure.
Assay E. MDCK assay MDR-1 (P-gp)
Apparent permeability coefficients (Papp) of the compounds across MDCK-MDR1 monolayers (MDCKII cells transfected with human MDR1 gene) are measured in apical-to-basal (AB) and basal-to-apical (BA) direction.
MDCK-MDR1 cells (6×10^5 cells/cm^2) are seeded onto filter inserts (Corning, Transwell, polycarbonate, 0.4 μm pore size) and cultured for 9 to 10 days. Compounds dissolved in DMSO stock solution (1-20 mM) are diluted with HTP-4 buffer (128.13 mM NaCl, 5.36 mM KCl, 1 mM MgSO4, 1.8 mM CaCl2, 4.17 mM NaHCO3, 1.19 mM Na2HPO4, 0.41 mM NaH2PO4, 15 mM HEPES, 20 mM glucose, pH 7.4) supplemented with 0.25% BSA to prepare the transport solutions, resulting in a final test concentration of 1 μM or 10 μM and a final DMSO content of 0.5%. The transport solution is applied to the apical or basolateral donor side for measuring A-B or B-A permeability, respectively. The receiver side contains HTP-4 buffer supplemented with 0.25% BSA. Samples are collected at the start and end of experiment from the donor and at various time intervals for up to 2 hours from the receiver side for concentration measurement by HPLC-MS/MS. Sampled receiver volumes are replaced with fresh receiver solution.
All data reported for Assay E were measured with a final test concentration of 10 μM.

[1] = Assay F: tissue distribution in rat after oral application; type: in vivo; details: for in vivo efflux (in words): after oral application; for in vivo efflux (Assay F): oral 10 μmol/kg, muscle/brain tissue distribution
Source text: In order to estimate the amount of administered drug to enter the brain, the brain to plasma ratio is used as surrogate parameter. As efflux transporters (e.g. P-gp) are located at the blood-brain barrier, compounds acting as substrates will be actively transported out of the brain. As these efflux transporters are not expressed in muscle tissue, the relative distribution ratio of compound between muscle and brain tissue can be used as indication for an efflux in vivo in rats or mice. In case there is no in vivo efflux detectable (in rats/mice) and in case there is no efflux in vitro (MDCK-MDR1 (P-gp)), a brain exposure in patients can be expected [see Table 7 for comparison of in vitro efflux data (MDCK-MDR1 assay) and in vivo efflux data (tissue distribution in rat/mouse after oral application)].
Assay F. Determination of Tissue Distribution in Rat/Mouse After Oral Application of Compounds
Male Han Wistar rats or C57BL/6NRj mice were orally dosed with 10 μmol/kg of compound to be investigated, suspended in 0.5% Natrosol/0.015% Tween80. Blood was collected in K3EDTA containing vials from the sublingual vein in short time Isoflurane anesthesia in rat or from the saphenous vein in conscious mice at […], 0.25, 0.5, 1, 2, 3, 4, 8 and 24 hours post administration. Subsequently, plasma was prepared by centrifugation for 5 min at 5000 rpm and stored at −20° C.
Tissues and CSF were sampled in anaesthetized animals. CSF was collected from the cisterna magna. Following exsanguination a femoral muscle sample was collected. Cranium and the dura matter were removed and the complete brain was collected. Before transfer of the muscle and brain sample to pre-weight homogenization devices (Precellys®) the tissues were rinsed with saline and blotted dry.
For homogenization, four parts (v/w) homogenization buffer (37.5% acetonitrile, 37.5% methanol, 25% water) were added. Tissues were homogenized with a Precellys® Evolution homogenizer. Five μL of the homogenate were added to 70 μL of a 1 to 1 (v/v) mixture of acetonitrile and methanol and frozen for at least 10 min at −18° C.
For final sample preparation, the sample was centrifuged at 4000 rpm for 1 min, and an aliquot of the resulting supernatant (30 μL) was mixed with 170 μL formic acid prior to injection to LC-MS. Calibration curves were prepared accordingly in rat and mouse plasma, respectively. All animal care and experimental procedures at Boehringer Ingelheim were conducted in compliance with the German and European Animal Welfare Act (EU Directive 2010/63/EU) and were approved by the Regierungspräsidium Tübingen as the responsible local German authority (reference number 35/9185.81-8/14-009-G).

human androgen receptor = human androgen receptor (Homo sapiens (Human), UniProt P10275); experiment: Assay B: human androgen receptor luciferase reporter assay (Indigo Biosciences); type: cell-based
Source text: Assay B. In Vitro Testing of Androgen Receptor Potency:
The human androgen receptor (AR) assay was run using Product #IB03001 from Indigo Biosciences. The cell line provided in this kit carries a reporter gene, induced upon AR stimulation. This reporter gene is cDNA encoding for beetle luciferase, a 62 kD protein originating from the North American firefly (Photinus pyralis). This luciferase catalyzes the mono-oxidation of D-luciferin yielding oxyluciferin, adenosine monophosphate, pyrophosphate, CO2, and photon emission. The luminescence intensity of the reaction is quantified using a luminometer.
To run the assay, the cells are thawed by adding pre-warmed cell recovery medium to each tube, then placed in a 37° C. water bath. 30000 viable cells in 200 μl are plated (collagen coated plates) and incubated at 37° C., ≥85% humidity, 5% CO2 for 24 hours. Media is replaced with compound screening medium. Cells are then challenged with 125 pM (EC80) 6a-Fl Testosterone and compounds are applied in half logarithmic dilutions from 10 μM to 10 nM. Assay plates are then incubated at 37° C., ≥85% humidity, 5% CO2 for 22-24 hours. Media is replaced with luciferase detection reagent and allowed 5 minutes to equilibrate prior to luminescence quantification.
Data Analysis consisted of calculating percentage of control between 100% (Negative control:6a-Fl Testosterone) and 0 (positive control: no 6a-FL Testosterone). Fitting of normalized values was made 4-Parameter sigmoidal binding curve (Log[conc]) vs. signal.

[2] = MDCK-MDR1, pH 7.4, Table 7, read-out: MDCK-MDR1 efflux ratio (Assay E)
[3] = pH 7.4, MDCK-MDR1 monolayers, mean +− standard deviation, read-out: Efflux ratio Assay E

Sequence of human Factor Xa (P00742 235-488): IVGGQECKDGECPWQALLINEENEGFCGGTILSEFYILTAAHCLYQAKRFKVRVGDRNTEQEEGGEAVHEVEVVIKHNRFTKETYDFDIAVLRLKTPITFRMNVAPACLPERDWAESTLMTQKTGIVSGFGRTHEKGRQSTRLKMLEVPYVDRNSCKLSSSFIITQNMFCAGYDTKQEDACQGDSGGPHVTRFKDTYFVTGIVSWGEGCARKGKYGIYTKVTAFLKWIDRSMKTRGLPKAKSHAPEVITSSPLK
Sequence of human Factor Xa (P00742 41-179 partner): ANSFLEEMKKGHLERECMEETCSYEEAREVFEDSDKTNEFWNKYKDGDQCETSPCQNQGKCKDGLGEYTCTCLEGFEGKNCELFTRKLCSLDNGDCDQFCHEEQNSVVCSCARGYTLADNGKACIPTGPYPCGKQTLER
Sequence of MDR1 (P-gp) (P08183 whole entry): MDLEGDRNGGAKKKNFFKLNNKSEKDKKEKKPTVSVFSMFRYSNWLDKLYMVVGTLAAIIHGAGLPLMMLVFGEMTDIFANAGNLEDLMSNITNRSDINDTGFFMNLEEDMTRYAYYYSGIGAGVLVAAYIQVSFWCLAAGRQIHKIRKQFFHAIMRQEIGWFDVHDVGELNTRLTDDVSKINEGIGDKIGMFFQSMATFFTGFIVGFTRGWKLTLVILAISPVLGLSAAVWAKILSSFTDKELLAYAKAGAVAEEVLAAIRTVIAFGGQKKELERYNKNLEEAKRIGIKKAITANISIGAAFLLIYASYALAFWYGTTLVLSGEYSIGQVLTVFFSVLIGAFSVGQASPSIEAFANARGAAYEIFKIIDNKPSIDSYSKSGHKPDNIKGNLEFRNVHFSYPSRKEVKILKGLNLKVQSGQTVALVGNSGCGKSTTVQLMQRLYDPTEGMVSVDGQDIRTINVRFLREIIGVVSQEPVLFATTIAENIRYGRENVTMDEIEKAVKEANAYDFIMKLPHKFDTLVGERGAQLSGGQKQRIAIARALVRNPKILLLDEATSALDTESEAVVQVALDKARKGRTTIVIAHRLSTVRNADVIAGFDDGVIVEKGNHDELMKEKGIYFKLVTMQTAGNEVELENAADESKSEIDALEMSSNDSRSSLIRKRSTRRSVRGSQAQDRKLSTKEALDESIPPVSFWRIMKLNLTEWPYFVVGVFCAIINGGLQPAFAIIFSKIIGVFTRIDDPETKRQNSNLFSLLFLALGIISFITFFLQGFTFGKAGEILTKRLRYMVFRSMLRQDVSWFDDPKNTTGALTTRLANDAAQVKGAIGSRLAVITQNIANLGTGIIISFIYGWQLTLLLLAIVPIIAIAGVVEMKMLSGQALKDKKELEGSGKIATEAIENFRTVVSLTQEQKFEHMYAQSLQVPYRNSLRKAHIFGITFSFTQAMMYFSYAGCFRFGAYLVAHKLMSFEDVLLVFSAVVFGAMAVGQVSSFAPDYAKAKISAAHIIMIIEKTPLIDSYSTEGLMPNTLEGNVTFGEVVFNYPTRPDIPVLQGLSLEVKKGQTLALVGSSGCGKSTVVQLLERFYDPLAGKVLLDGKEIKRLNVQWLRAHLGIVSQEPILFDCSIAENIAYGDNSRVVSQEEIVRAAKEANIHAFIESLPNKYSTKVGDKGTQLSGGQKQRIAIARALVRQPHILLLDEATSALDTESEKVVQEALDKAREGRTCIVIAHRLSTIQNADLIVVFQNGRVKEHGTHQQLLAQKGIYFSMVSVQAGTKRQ
Sequence of human androgen receptor (P10275 whole entry): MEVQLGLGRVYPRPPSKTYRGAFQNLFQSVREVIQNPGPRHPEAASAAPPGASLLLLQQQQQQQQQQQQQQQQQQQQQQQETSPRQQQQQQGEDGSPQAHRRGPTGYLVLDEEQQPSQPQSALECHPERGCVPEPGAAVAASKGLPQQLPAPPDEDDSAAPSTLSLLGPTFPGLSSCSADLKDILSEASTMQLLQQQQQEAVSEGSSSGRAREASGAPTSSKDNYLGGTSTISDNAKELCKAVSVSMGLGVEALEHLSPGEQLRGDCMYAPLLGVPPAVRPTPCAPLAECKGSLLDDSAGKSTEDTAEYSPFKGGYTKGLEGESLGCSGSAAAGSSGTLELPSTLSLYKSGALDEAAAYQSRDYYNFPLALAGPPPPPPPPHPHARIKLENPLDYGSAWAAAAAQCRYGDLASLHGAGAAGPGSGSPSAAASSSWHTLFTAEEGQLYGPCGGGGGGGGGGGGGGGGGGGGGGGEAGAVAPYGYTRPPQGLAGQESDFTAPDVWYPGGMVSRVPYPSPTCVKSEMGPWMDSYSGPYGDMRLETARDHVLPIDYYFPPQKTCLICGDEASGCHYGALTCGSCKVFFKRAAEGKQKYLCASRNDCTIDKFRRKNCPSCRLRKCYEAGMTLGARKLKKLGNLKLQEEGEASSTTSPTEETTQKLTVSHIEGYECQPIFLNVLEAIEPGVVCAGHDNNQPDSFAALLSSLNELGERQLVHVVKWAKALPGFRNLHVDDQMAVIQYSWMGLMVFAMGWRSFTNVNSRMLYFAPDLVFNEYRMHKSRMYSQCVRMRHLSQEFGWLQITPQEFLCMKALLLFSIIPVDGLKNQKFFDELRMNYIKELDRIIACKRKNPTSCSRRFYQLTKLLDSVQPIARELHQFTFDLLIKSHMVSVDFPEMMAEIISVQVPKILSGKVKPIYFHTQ

Compound	inhibition of the human Factor Xa enzyme (in words) (human Factor Xa)	IC50 (human Factor Xa) [µM]	Selectivity Assay C/Assay A (human Factor Xa)	in vitro efflux, MDCK-MDR1 (in words) (MDR1 (P-gp))	efflux ratio at 2 h, 10 μM (MDR1 (P-gp); [2])	in vivo efflux (in words) [1]	in vivo efflux (Assay F) [1]	efflux ratio at 2 h, 10 μM (MDR1 (P-gp); [3])	IC50 (human androgen receptor; challenge with 125 pM (EC80) 6a-Fl Testosterone, mean +− standard deviation) [µM]	Selectivity Assay B/Assay A (human androgen receptor; ratio IC50 androgen receptor / IC50 IDO1)
CC(C)(NC(=O)c1ccc(Br)s1)C(=O)Nc1ccc(N2CCOCC2=O)c(Cl)c1 [WO2005/111029 Ex. 28]	inhibit the human Factor Xa enzyme	0.026	0.11	high efflux						
CC(=O)N1CCc2ccc(NC(=O)C(C)(C)NC(=O)c3ccc(Cl)s3)cc2CC1 [WO2007/003536 Ex. 6]		> 10	>164		7.6	substantial in vivo efflux	12.6 (rat)			
Cc1cc(NC(=O)C(C)(C)NC(=O)c2ccc(Cl)s2)ccc1C(=O)N1CCCC1 [WO2005/111014 Ex. 4]	inhibits the human Factor Xa enzyme	0.008	0.03	high efflux				5.7		
CC(C)(NC(=O)c1ccc(Cl)s1)C(=O)Nc1ccc2c(c1)CCN(C(=O)C(F)(F)F)CC2 [WO2007/003536 Ex. 4]		> 10	>175		1	substantial in vivo efflux	3.3 (rat)			
CC(C)(NC(=O)c1ccc(Cl)s1)C(=O)Nc1ncc2c(n1)CCN(Cc1ccccc1)CC2 [WO2007/003536 Ex. 159]		> 10	>13		1.8	substantial in vivo efflux	6.2 (rat)			
Cc1cc(NC(=O)C(C)(C)NC(=O)c2ccc(Cl)s2)ccc1N1CCOCC1=O [WO2005/111029 Ex. 8]	inhibit the human Factor Xa enzyme	0.04	0.01	high efflux						
CC(C)(NC(=O)c1ccc(Cl)s1)C(=O)Nc1ccc(Cl)cc1 [Example 5, 2-[(5-chlorothiophen-2-yl)formamido]-N-(4-chlorophenyl)-2-methylpropanamide]		> 10	>57						> 10	>58
C#Cc1ccc(C(=O)NC(C)(C(=O)Nc2ccc(N3CCOCC3=O)c(C)c2)C(F)(F)F)s1 (stereo not shown) [5-ethynyl-N-{1-trifluoromethyl-1-[3-methyl-4-(3-oxomorpholin-4-yl)phenylcarbamoyl]ethyl}thiophene-2-carboxamide]	inhibits the human Factor Xa enzyme	0.048	0.08	high efflux ratio				32		
